These results are taken from ChEMBL document CHEMBL4673215, “Discovery of DS42450411 as a potent orally active hepcidin production inhibitor: Design and optimization of novel 4-aminopyrimidine derivatives” (Bioorg Med Chem Lett, 2018).

Calls of active or inactive are those of the source.

Series [1] is described as follows: Inhibition of BMP6-stimulated hepcidin production in human HepG2 cells.
Series [2] in a line: Clearance in C57BL/6J mouse at 30 mg/kg, po. It is filed as ADME, organism-based. As to conditions: in vivo.
A short description of series [3]: Lipophilicity, logD of the compound. In kind it is physicochemical. As to conditions: octanol/water.
Series [4] in a line: Half life in C57BL/6J mouse at 30 mg/kg, po. It is filed as ADME, organism-based. As to conditions: in vivo.
The subject of a further series is Mus musculus. The series can be described thus: Inhibition of IL6-induced hepcidin production in C57BL/6J mouse serum at 30 mg/kg, po administered 30 mins prior to IL6 challenge and measured after 4 hrs. In kind it is functional, organism-based. As to conditions: time 270.0 min.
Series [5] can be described thus: Tmax in C57BL/6J mouse at 30 mg/kg, po. It is filed as ADME, organism-based. As to conditions: in vivo.
Series [6] is described as follows: Protein binding in plasma (unknown origin) assessed as unbound fraction. It is filed as ADME, cell-free.
Series [7] is described as follows: AUC in C57BL/6J mouse at 30 mg/kg, po. Details: dose 30 mg/kg. As to conditions: in vivo. It is filed as ADME, organism-based.
Series [8] has as its target T1, Activin receptor type-1 (Homo sapiens) (UniProt Q04771).
T1 sequence (whole entry): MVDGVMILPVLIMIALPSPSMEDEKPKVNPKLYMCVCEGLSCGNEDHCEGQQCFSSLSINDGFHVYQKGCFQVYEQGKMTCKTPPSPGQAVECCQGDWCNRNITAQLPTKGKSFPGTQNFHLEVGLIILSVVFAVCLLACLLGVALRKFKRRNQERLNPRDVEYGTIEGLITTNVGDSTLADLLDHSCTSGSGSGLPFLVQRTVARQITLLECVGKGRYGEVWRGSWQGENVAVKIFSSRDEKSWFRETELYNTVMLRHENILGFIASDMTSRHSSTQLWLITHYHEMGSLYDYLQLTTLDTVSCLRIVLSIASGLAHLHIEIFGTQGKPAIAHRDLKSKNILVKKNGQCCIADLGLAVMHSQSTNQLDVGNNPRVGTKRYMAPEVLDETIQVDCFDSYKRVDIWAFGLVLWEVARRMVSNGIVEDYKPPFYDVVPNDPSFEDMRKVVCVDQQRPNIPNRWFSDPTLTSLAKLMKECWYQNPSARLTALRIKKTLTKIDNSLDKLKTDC
Put plainly: Inhibition of ALK2 (unknown origin) at 30 uM.

Series [9] in a line: Cmax in C57BL/6J mouse at 30 mg/kg, po. Set-up: route oral, dose 30 mg/kg. As to conditions: in vivo. It is filed as ADME, organism-based.
Series [10] addresses Dual specificity protein kinase CLK2 (Homo sapiens) (UniProt P49760). The series can be described thus: Inhibition of CLK2 (unknown origin) at 0.5 uM.
Series [11] deals with Dual specificity tyrosine-phosphorylation-regulated kinase 1B (Homo sapiens) (UniProt Q9Y463). Put plainly: Inhibition of DYRK1b (unknown origin) at 0.5 uM.
Sequence of Dual specificity tyrosine-phosphorylation-regulated kinase 1B (Homo sapiens) (Q9Y463 whole entry, looked up): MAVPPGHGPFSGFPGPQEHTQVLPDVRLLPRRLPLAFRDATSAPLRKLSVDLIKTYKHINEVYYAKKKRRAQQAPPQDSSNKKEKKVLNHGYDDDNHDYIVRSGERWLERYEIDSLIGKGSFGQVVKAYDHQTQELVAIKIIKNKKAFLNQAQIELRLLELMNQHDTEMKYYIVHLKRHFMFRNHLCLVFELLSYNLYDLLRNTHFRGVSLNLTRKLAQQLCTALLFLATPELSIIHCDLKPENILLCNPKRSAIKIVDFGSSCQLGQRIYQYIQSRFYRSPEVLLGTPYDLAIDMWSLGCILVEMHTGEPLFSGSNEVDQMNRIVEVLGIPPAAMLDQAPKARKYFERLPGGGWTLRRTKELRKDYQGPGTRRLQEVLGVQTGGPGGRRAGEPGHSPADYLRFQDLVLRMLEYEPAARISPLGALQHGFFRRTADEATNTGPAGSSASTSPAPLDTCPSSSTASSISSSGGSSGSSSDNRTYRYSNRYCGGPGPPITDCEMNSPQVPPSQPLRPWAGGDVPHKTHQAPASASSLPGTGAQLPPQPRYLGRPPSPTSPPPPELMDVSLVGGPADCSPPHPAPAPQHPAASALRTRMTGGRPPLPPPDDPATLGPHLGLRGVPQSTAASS
Series [12] deals with Dual specificity tyrosine-phosphorylation-regulated kinase 1A (Homo sapiens, UniProt Q13627). The series can be described thus: Inhibition of DYRK1a (unknown origin).

Sequence of Dual specificity protein kinase CLK2 (Homo sapiens) (P49760 whole entry, looked up): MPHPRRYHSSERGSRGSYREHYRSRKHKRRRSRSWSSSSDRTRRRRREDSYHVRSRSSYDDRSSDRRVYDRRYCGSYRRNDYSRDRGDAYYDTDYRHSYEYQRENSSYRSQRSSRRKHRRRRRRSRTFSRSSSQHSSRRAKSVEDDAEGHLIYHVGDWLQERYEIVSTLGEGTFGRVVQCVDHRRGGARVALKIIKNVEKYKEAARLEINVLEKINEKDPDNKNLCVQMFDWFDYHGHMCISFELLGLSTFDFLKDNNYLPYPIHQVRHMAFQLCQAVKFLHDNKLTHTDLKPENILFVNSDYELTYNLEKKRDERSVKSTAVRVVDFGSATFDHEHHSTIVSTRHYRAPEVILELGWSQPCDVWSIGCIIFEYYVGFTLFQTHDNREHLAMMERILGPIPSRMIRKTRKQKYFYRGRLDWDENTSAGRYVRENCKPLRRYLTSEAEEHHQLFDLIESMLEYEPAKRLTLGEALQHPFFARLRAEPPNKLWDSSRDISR

As to `Oc1ncnc2c1C1(CCCC1)Cc1ccccc1-2`, in series [1], the IC50 was over 30000 nM.
The same measure, in the same setting: then `Nc1ncnc2c1C1(CCCC1)Cc1ccccc1-2`, with 4200 nM; and `CC1(C)Cc2cc(OC3CCCNCC3)ccc2-c2ncnc(N)c21` (configuration not stated), with 240 nM; and `C=C(c1ccc2c(c1)CC(C)(C)c1c(N)ncnc1-2)[C@H]1CC[C@H](NC)CC1`, with 45 nM.
Still for that read-out and setting: in the case of `C=C(c1ccc2c(c1)CC(C)(C)c1c(N)ncnc1-2)[C@H]1CC[C@H](N(C)C)CC1` it was 110 nM.
Molecule `C=C(c1ccc2c(c1)CC(C)(C)c1c(N)ncnc1-2)[C@H]1CCC[C@H](N)C1` came in with an IC50 in series [1] of 42 nM.
The same measure, in the same setting: in the case of `COc1ccc2c(c1)CC(C)(C)c1c(N)n[nH]c1-2` it was over 30000 nM; in that of `c1ccc2c(c1)CC1(CCCC1)c1cncnc1-2`, over 30000 nM.
As for `Cc1cccc2c1-c1ncnc(N)c1C(C)(C)C2`, the IC50 in series [1] turned out to be 4700 nM.
`C=C(c1ccc2c(c1)CC(C)(C)c1c(N)ncnc1-2)[C@H]1CC[C@H](N)CC1` returned a CL/F in series [2] of 191 mL/min/kg. This molecule returned a logD in [3] of 1.6. Besides, the half-life in [4] is 4.59 h. Further, the inhibition result with Mus musculus is “Active”. The same molecule returned an IC50 in series [1] of 32 nM. In addition, in series [5], the Tmax was 1.17 h. Besides, the fraction unbound in series [6] is 0.065. In addition, the AUC in [7] turned out to be 2580 ng·h/mL. Besides, the inhibition result in [8] is “inactive”. Also, the Cmax in series [9] was determined as 610 ng/mL.
On to `C=C(c1ccc2c(c1)CC(C)(C)c1c(N)ncnc1-2)C12CC(C1)C2`, for which, in series [1], the IC50 came to 120 nM.
`Cc1ccc2c(c1)-c1ncnc(N)c1C(C)(C)C2` displayed a 50% inhibitory concentration (IC50) in series [1] of 2800 nM.
On the same count and under the same terms, in the case of `CC1(C)Cc2cc(OC3CCNCC3)ccc2-c2ncnc(N)c21` it was 230 nM.
Still for that read-out and setting: then `CC1(C)Cc2cc(OCC(=O)O)ccc2-c2ncnc(N)c21`, with 11000 nM.
Same read-out and setting: then `CC(=O)N1CCC(Oc2ccc3c(c2)CC(C)(C)c2c(N)ncnc2-3)CC1`, with 760 nM; and `CC(c1ccc2c(c1)CC(C)(C)c1c(N)ncnc1-2)C1CCNCC1` (racemic), with 73 nM; and `CCOc1ccc2c(c1)CC(C)(C)c1c(N)ncnc1-2`, with 420 nM.
As for `COc1ccc2c(c1)CC(C)(C)c1c(N)ncnc1-2`, in [1], half-maximal inhibition (IC50) required 530 nM. The inhibition entry in series [10] and in series [11] was “Active” throughout.
Molecule `CC1(C)Cc2cc(C(=O)C3CCNCC3)ccc2-c2ncnc(N)c21` registered an IC50 in [1] of 300 nM.
In turn, `COc1ccc2c(c1)CC(C)(C)c1c(N)nc(C)nc1-2` registered an IC50 in [1] of over 5000 nM.
On the same count and under the same terms, then `Cc1cccc2c1CC(C)(C)c1c(N)ncnc1-2`, with 5000 nM; and `CC1(C)Cc2cc(OCCO)ccc2-c2ncnc(N)c21`, with 1100 nM.
In [1], `CC1(C)Cc2cc(OC3CCNC3)ccc2-c2ncnc(N)c21` (configuration not stated) yielded an IC50 of 180 nM.
The molecule `CN(C)c1ncnc2c1C1(CCCC1)Cc1ccccc1-2` came in with an IC50 in series [1] of over 30000 nM.
On the same count and under the same terms, in the case of `COC(=O)c1ccc2c(c1)CC(C)(C)c1c(N)ncnc1-2` it was 11000 nM.
The same measure, in the same setting: in the case of `C=C(c1ccc2c(c1)CC(C)(C)c1c(N)ncnc1-2)C1CCNCC1` it was 21 nM.
Take `Nc1ncnc2c1CCc1ccccc1-2`: the IC50 in series [1] was over 30000 nM; in series [12], 57000 nM.
`Cc1ccc2c(c1)CC(C)(C)c1c(N)ncnc1-2` came in with an IC50 in [1] of 600 nM.
On the same count and under the same terms, in the case of `CNc1ncnc2c1C1(CCCC1)Cc1ccccc1-2` it was over 30000 nM.
Still for that read-out and setting: in the case of `CC(C)Oc1ccc2c(c1)CC(C)(C)c1c(N)ncnc1-2` it was 490 nM.
Still for that read-out and setting: in the case of `C=C(c1ccc2c(c1)CC(C)(C)c1c(N)ncnc1-2)[C@H]1C[C@H](N)C1` it was 31 nM; in that of `CC1(C)Cc2cc(C3CCNCC3)ccc2-c2ncnc(N)c21`, 810 nM.
Turning to `CC1(C)Cc2cc(-c3ccccc3)ccc2-c2ncnc(N)c21`, in series [1], half-maximal inhibition (IC50) was put at 1500 nM.
The molecule `CC1(C)Cc2ccccc2-c2ncnc(N)c21` had an IC50 in series [1] of 4500 nM.
Consider `COc1ccc2c(c1)CC(C)(C)c1c-2noc1N`, for which, in series [1], the IC50 is over 30000 nM.

What is called IC50 is the concentration that inhibits the measured activity by half. A word on the CL/F: it is the apparent clearance, not corrected for the fraction that reaches the circulation. For orientation: logD means the decadic logarithm of the distribution of all forms, ionised or not, between an organic phase and buffer at a given pH. High values mean a more lipophilic compound, low ones a more hydrophilic compound. As a reminder, the half-life is the time needed for the level to fall by half in the phase considered. The term Tmax denotes the time from dosing to the highest level. Usually fraction unbound stands for the share of the substance not bound to proteins or other matrix. As a reminder, the AUC is the area under the concentration-time curve, a measure of exposure. What is called Cmax is the peak of the concentration-time curve.
